From ChEMBL document CHEMBL5252623, “Discovery of 3-phenyl-1,2,4-oxadiazole derivatives as a new class of SARS-CoV-2 main protease inhibitors” (Bioorg Med Chem Lett, 2023)

These compounds were tested against Replicase polyprotein 1ab (Severe acute respiratory syndrome coronavirus 2, UniProt P0DTD1) (assay: Inhibition of SARS-CoV-2 main protease expressed in Escherichia coli BL21 (DE3) using MDA-AVLQSGFR-Lys(Dnp)-Lys-NH2 as substrate incubated for 10 mins by FRET analysis).
Compound `O=C(CCc1ccccc1)NCc1nc(-c2ccc(C(F)(F)F)cc2)no1` has an IC50 of 90.5 µM.
In the case of `O=C(NCc1nc(-c2ccc(C(F)(F)F)cc2)no1)c1ccccc1`, the IC50 is reported as 62 µM.
For `CC1=C(c2ccccc2)C1C(=O)NC(Cc1cccc(F)c1)c1nc(-c2ccc(C(F)(F)F)cc2)no1` (stereo not given), the IC50 was 14.2 µM.
`CC1=C(c2ccccc2)C1C(=O)NCc1nc(-c2cccc(C(F)(F)F)c2)no1` (stereo not given) gave an IC50 of 14.3 µM.
`CC1=C(c2ccccc2)C1C(=O)NC(Cc1ccccc1F)c1nc(-c2ccc(C(F)(F)F)cc2)no1` (stereo not given) showed an IC50 of 7.48 µM.
For `O=C(/C=C/c1ccccc1)NCc1nc(-c2ccc(C(F)(F)F)cc2)no1`, the IC50 was 46.3 µM.
For `CC1=C(c2ccccc2)C1C(=O)NC(CC1CCCCC1)c1nc(-c2ccc(C(F)(F)F)cc2)no1` (stereo not given), the IC50 was 19.4 µM.
`O=C(/C=C/c1ccco1)NCc1nc(-c2ccc(C(F)(F)F)cc2)no1` showed an IC50 of 60.5 µM.
`CC1=C(c2ccccc2)C1C(=O)NCc1nc(-c2ccccc2)no1` (stereo not given) was tested, and the IC50 was 79.6 µM.
Compound `CC1=C(c2ccccc2)C1C(=O)NC(Cc1ccc(F)cc1)c1nc(-c2ccc(C(F)(F)F)cc2)no1` (stereo not given) has an IC50 of 16.5 µM.
`CC1=C(c2ccccc2)C1C(=O)NCc1nc(-c2ccc(C(F)(F)F)cc2)no1` (stereo not given) gave an IC50 of 6.71 µM.
`O=C(C#Cc1ccccc1)NCc1nc(-c2ccc(C(F)(F)F)cc2)no1` showed an IC50 of 46.9 µM.
With `C/C=C/C(=O)NCc1nc(-c2ccc(C(F)(F)F)cc2)no1` the IC50 was 250 µM.
In the case of `CC1=C(c2ccccc2)C1C(=O)NCc1nc(-c2ccccc2C(F)(F)F)no1` (stereo not given), the IC50 is reported as 66.9 µM.
`O=C(/C=C/c1cccs1)NCc1nc(-c2ccc(C(F)(F)F)cc2)no1` showed an IC50 of 54.6 µM.
`CC1=C(c2ccccc2)C1C(=O)NC(Cc1ccc2ccccc2c1)c1nc(-c2ccc(C(F)(F)F)cc2)no1` (stereo not given) showed an IC50 of 6.47 µM.
Work on `O=C(/C=C/c1ccccn1)NCc1nc(-c2ccc(C(F)(F)F)cc2)no1` yielded an IC50 of 102 µM.
Compound `CC1=C(c2ccccc2)C1C(=O)NC(CC1CC1)c1nc(-c2ccc(C(F)(F)F)cc2)no1` (stereo not given) has an IC50 of 76.8 µM.
`CC1=C(c2ccccc2)C1C(=O)NC(Cc1ccccc1)c1nc(-c2ccc(C(F)(F)F)cc2)no1` (stereo not given) showed an IC50 of 5.27 µM.
Work on `CC1=C(c2ccccc2)C1C(=O)NC(Cc1cc2ccccc2[nH]1)c1nc(-c2ccc(C(F)(F)F)cc2)no1` (stereo not given) yielded an IC50 of 14.7 µM.
